Source: patent US4252806A, “Triazoloquinolones” (Mead Johnson & Company, priority 1979, dated 1981)

Experiments:
[1] = Mouse, tail clip (analgetic); type: in vivo; details: oral
Source text: ^1 Bianchi, et al., Brit. J. of Pharmacology 9, 280 (1954).

[2] = Reduction of phenylquinone writhing in mice (analgetic); type: in vivo; details: Mus musculus, oral
Source text: Reduction of phenylquinone
^2 Hendershot, et al., J. Pharmcol. & Exptl. Ther. 125, 237 (1959).

[3] = Prevention of reserpine ptosis in mice (oral pretreatment); type: in vivo; details: Mus musculus, test drug oral (per os) before reserpine 2.0 mg./kg. intravenously
[4] = Lethal toxicity (ALD50) and first signs of pharmacologic activity (ATD50) in mice; details: mouse, in vivo, oral, groups of 10, given as part of ALD50/ATD50 ratio; for TD50: read-out: ATD50 (dose at which signs of pharmacologic activity are first evidenced)
Method: In groups of 10 mice treated variously with geometrically increasing doses of test compound of from 125 mg./kg. to 2,000 mg./kg., the lethal toxicity (ALD50) and the dose at which signs of pharmacologic activity are first evidenced (ATD50) can be estimated. […] The ALD50 /ATD50 ratio (mg. per kg. body wt./mg. per kg. body wt.) for the compound of Procedure 4 is 2,000/125-250 and for that of Procedure 6 is >2,000/8-15.7. The ratio for trazodone is 940/2-4. Thus, the present substances have less than one-half the lethal toxicity of trazodone and from less than one-half to one-fiftieth the propensity for producing overt signs of physiological effect (ATD50) on oral administration to mice. More particularly, the present substances exert less of a depressant effect on the central nervous system as reflected by less deficit in motor coordination, less interference with normal motor activity, and less analgetic effect than trazodone. Laboratory test data with respect to these properties are arranged below.

[5] = Reduction of spontaneous motor activity in mice; type: in vivo; details: oral
[6] = CNS depression in mice: antagonism of foot shock induced aggression; type: in vivo; details: Mus musculus, oral
Source text: Antagonism of foot shock
^5 Tedeschi, et al., J. Pharmacol. & Exptl. Ther. 125, 28 (1959).

[7] = Inhibition of pernicious preening in mice (antipsychotic or analgetic); type: in vivo; details: Mus musculus, oral, read-out: ED50, inhibition of pernicious preening (anti psychotic or analgetic)
Source text: Inhibition of pernicious
psychotic or analgetic)^6
^6 Wilfon, et al., Federation Proceedings 19, 21 (1960).

[8] = Suppression of conditioned avoidance response; type: in vivo; details: oral; for suppression of conditioned avoidance response, activity in words: at 100 mg/kg
Source text: |Suppression of conditioned |avoidance response | ^7 Albert, et al., Pharmacologist 4, 152 (1962).

[9] = Rotorod method for motor incordination in mice; type: in vivo; details: oral
Source text: Rotorod method for motor
^4 Kinnaird, et al., J. Pharmacol. & Exptl.
Cutting, et al., Archives Int. Pharmacodyn.

[10] = various animal tests, U.S. Pat. No. 3,381,009; cited from earlier work
[11] = clinical use, vs imipramine; cited from earlier work

Structure (SMILES) | tail clip (analgetic), activity in words ([1]; at 200 (mg./kg.)) | ED50 [2] [mg/kg] | ED50 [3] [mg/kg] | LD50 [4] [mg/kg] | TD50 [4] [mg/kg] | reduction of spontaneous motor activity, activity in words ([5]; at 20, 40, & 80 (mg./kg.)) | ED50 [6] [mg/kg] | ED50 [7] [mg/kg] | suppression of conditioned avoidance response, activity in words [8] | ED50 [1] [mg/kg] | Rotorod method for motor incordination, activity in words ([9]; at 800 (mg./kg.)) | AED-0.3, reduction of spontaneous motor activity [5] [mg/kg] | TD50 ([9]; mouse, in vivo, read-out: ED50, Rotorod method for motor incordination) [mg/kg] | pharmacological actions [10] | clinical antidepressant effectiveness and side effects [11] | ED50 [8] [mg/kg]
Cc1cc2nn(CCCN3CCN(c4cccc(Cl)c4)CC3)c(=O)n2c2ccccc12 [Procedure 6] | inactive | 51.8 | 27 | > 2000 | 8 to 15.7 | inactive | 36.5 | 62 | inactive |  |  |  |  |  |  | 
O=c1n(CCCN2CCN(c3cccc(Cl)c3)CC2)nc2ccc3ccccc3n12 [Procedure 4, 2-[3-[4-(3-Chlorophenyl)-1-piperazinyl]propyl]-1,2,4-triazolo[4,3-a]quinolin-3(2H)-one] |  | 40.5 | 29 | 2000 | 125 to 250 |  | 54 | 24 | inactive | 200 | inactive | 80 |  |  |  | 
O=c1n(CCCN2CCN(c3cccc(Cl)c3)CC2)nc2ccccn12 [trazodone, 2-[3-[4-(3-chlorophenyl)-1-piperazinyl]propyl]-1,2,4-triazolo[4,3-a]pyridin-3(2H)-one, reference compound] |  | 21.8 | 36 | 940 | 2 to 4 |  | 22.2 | 43 |  | 55.5 |  | 15.3 | 44.4 | tranquilizing action, hypotensive action, and analgesic action | antidepressant equivalent in effectiveness to imipramine but with fewer side effects | 131
